Measured values from patent US20240350460A1, “APPLICATION OF HYDRAZIDE COMPOUND IN TUMOR TREATMENT” (NANJING SHIJIANG MEDICINE TECHNOLOGY CO., LTD, priority 2021, published 2024).

Experiments:
Type in all cases: cell-based
[1] = test system: NCI-H82; assay: Cell viability (Promega CellTiter-Glo), inhibitory effect on tumor cell line; settings: NCI-H82, human small cell lung cancer cell; sensitive group; 3-4 days of culture; n=3
Method: Cell viability was detected using the Promega CellTiter-Glo kit, cell viability was determined by directly measuring intracellular ATP content. […] The name, source and culture conditions of each tumor cell line were as follows: […] HTB-175) was cultured in 10% fetal bovine serum-containing RPMI1640 medium (+P/S).

[2] = test system: G-401; assay: as above; settings: G-401, human renal carcinoma Wilms cell; sensitive group; 3-4 days of culture; n=3
Method: (§1) Cell viability was detected using the Promega CellTiter-Glo kit, cell viability was determined by directly measuring intracellular ATP content. […] The name, source and culture conditions of each tumor cell line were as follows: Cell line G-401 (ATCC, No. CRL-1441) was cultured in 10% fetal bovine serum-containing McCoy's 5a medium (+P/S).

[3] = test system: MDA-MB-453; assay: as above; settings: Homo sapiens; MDA-MB-453, breast cancer cell; sensitive group; 3-4 days of culture; n=3
Method: as §1, with “MDA-MB-453” for “G-401”, “HTB-131)” for “CRL-1441)”, “Leibovitz's L-15” for “McCoy's 5a”

[4] = test system: SW48; assay: as above; settings: SW48, human colon adenocarcinoma cell; sensitive group; 3-4 days of culture; n=3
Method: as §1, with “SW48” for “G-401”, “CCL-231)” for “CRL-1441)”, “Leibovitz's L-15” for “McCoy's 5a”

[5] = test system: WSU-DLCL2; assay: as above; settings: WSUDLCL2; WSU-DLCL2, human diffuse large B-cell lymphoma; sensitive group; 3-4 days of culture; n=3
Method: Cell viability was detected using the Promega CellTiter-Glo kit, cell viability was determined by directly measuring intracellular ATP content. […] The name, source and culture conditions of each tumor cell line were as follows: Cell line WSU-DLCL2 (DSMZ, No. ACC-575) was cultured in 10% fetal bovine serum-containing RPMI1640 medium (+P/S).

[6] = test system: CFPAC-1; assay: as above; settings: CFPAC-1, human pancreatic cancer cell; insensitive group; 3-4 days of culture; n=3
Method: as §1, with “CFPAC-1” for “G-401”, “CRL-1918)” for “CRL-1441)”, “IMDM” for “McCoy's 5a”

[7] = test system: GB-1; assay: as above; settings: GB-1, human glioblastoma cell; insensitive group; 3-4 days of culture; n=3
[8] = test system: SF126; assay: as above; settings: SF-126; SF126, human glioblastoma multiforme cell; insensitive group; 3-4 days of culture; n=3
Method: Cell viability was detected using the Promega CellTiter-Glo kit, cell viability was determined by directly measuring intracellular ATP content. […] The name, source and culture conditions of each tumor cell line were as follows: Cell line SF126 (JCRB, No. IFO50286) was cultured in 10% fetal bovine serum-containing EMEM medium (+P/S).

[9] = test system: control NCI-H82 cell (NCI-H82 (Con)); assay: Cell viability (Promega CellTiter-Glo) on control NCI-H82 cell; settings: Homo sapiens; NCI-H82 transfected with empty virus vector without NNMT gene; n=3
Source text: (§2) The NNMT protein-overexpressing NCI-H82 cell (NCI-H82 (ov-NNMT)) was obtained by inserting the NNMT gene into NCI-H82 cell using a viral vector. The control NCI-H82 cell (NCI-H82 (Con)) was obtained by transfecting NCI-H82 cell with empty virus vector without carrying NNMT gene.
(§3) The expressing level of NNMT protein in control NCI-H82 cell (NCI-H82 (Con)) and NNMT protein-overexpressing NCI-H82 cell (NCI-H82 (ov-NNMT)) was detected using Western Blot assay (as shown in FIG. 7), it could be seen from FIG. 7 that the NNMT protein in NCI-H82 (ov-NNMT) cell was overexpressed compared with the expression level of NNMT protein in NCI-H82 (Con) cell.

[10] = test system: NNMT protein-overexpressing NCI-H82 cell (NCI-H82 (ov-NNMT)); assay: Cell viability (Promega CellTiter-Glo) on NNMT protein-overexpressing NCI-H82 cell; settings: Homo sapiens; NCI-H82 overexpressing NNMT protein (NNMT gene inserted by viral vector); n=3
Source text: as §2, §3

[11] = test system: 786-O; assay: Cell viability (Promega CellTiter-Glo), inhibitory effect on tumor cell line; settings: Homo sapiens, 786-0, clear cell renal cell adenocarcinoma cell, insensitive group, 3-4 days of culture, n=3
Method: Cell viability was detected using the Promega CellTiter-Glo kit, cell viability was determined by directly measuring intracellular ATP content. […] The name, source and culture conditions of each tumor cell line were as follows: Cell line 786-O (ATCC, No. CRL-1932) was cultured in 10% fetal bovine serum-containing RPMI1640 medium (+P/S).

Compound: O=C1OCCN1/N=C/c1ccc([N+](=O)[O-])o1 [Furazolidone, furazolidone]
- IC50 [1]: 8.31 µM
- IC50 [2]: 5.77 µM
- IC50 [3]: 7.73 µM
- IC50 [4]: 8.23 µM
- IC50 [5]: 9.04 µM
- IC50 [6]: > 50 µM
- IC50 [7]: 38.4 µM
- IC50 [8]: > 50 µM
- IC50 [9]: 8.22 µM
- IC50 [10]: 18.5 µM

Compound: O=C(N/N=C/c1ccc([N+](=O)[O-])o1)c1ccc(O)cc1 [Nifuroxazide, nifuroxazide]
- IC50 [1]: 2.48 µM
- IC50 [2]: 3.22 µM
- IC50 [3]: 2.78 µM
- IC50 [4]: 4.05 µM
- IC50 [5]: 4.22 µM
- IC50 [6]: > 50 µM
- IC50 [11]: > 50 µM
- IC50 [7]: 20 µM
- IC50 [8]: 16.4 µM
- IC50 [9]: 2.41 µM
- IC50 [10]: 5.01 µM
